# According to ChEMBL document CHEMBL1137908, “Synthesis and antibacterial activity of novel 6-fluoro-1-[(1R,2S)-2-fluorocyclopropan-1-yl]-4-oxoquinoline-3-carboxylic acids bearing cyclopropane-fused 2-amino-8-azabicyclo[4.3.0]nonan-8-yl substituents at the C-7 position” (Bioorg Med Chem Lett, 2004):
# Experiments:
# [1] = molecular target: DNA topoisomerase II (Homo sapiens, UniProt P11388+Q02880); experiment: Inhibitory concentration against human DNA topoisomerase II; assay type: protein assay
# [2] = molecular target: T1, DNA topoisomerase 4 subunit A (Staphylococcus aureus subsp. aureus Mu50, UniProt Q931S2); experiment: Inhibitory concentration against Staphylococcus aureus DNA topoisomerase IV
# T1 sequence (Q931S2 whole entry): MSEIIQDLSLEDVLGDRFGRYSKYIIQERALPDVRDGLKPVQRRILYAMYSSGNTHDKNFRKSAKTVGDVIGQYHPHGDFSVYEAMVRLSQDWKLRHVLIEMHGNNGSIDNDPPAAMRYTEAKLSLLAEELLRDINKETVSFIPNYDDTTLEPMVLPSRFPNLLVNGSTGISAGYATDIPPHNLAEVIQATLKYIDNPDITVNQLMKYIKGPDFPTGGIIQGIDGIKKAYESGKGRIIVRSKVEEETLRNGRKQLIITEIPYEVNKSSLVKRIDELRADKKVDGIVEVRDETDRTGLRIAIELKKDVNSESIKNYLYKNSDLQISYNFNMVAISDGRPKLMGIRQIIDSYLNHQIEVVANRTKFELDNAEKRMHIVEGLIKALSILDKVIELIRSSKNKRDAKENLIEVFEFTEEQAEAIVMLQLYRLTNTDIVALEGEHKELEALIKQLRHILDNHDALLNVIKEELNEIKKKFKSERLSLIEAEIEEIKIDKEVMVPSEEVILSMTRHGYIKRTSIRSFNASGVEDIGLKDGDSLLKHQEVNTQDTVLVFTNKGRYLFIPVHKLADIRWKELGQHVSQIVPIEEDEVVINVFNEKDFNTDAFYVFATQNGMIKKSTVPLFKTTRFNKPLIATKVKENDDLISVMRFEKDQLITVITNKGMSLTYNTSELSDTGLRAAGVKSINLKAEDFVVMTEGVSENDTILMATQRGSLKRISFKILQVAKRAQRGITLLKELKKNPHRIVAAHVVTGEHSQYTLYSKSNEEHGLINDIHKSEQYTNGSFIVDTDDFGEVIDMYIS
# [3] = system: Enterococcus faecalis; experiment: Antibacterial activity against Enterococcus faecalis ATCC 19433 was determined; assay type: functional
# [4] = system: Streptococcus pyogenes; experiment: Antibacterial activity against Streptococcus pyogenes G-36 was determined; assay type: functional
# [5] = system: Streptococcus pneumoniae; experiment: Antibacterial activity against Penicillin-resistant Streptococcus pneumoniae (PRSP) J-24 was determined; assay type: functional
# [6] = system: Staphylococcus epidermidis; experiment: Antibacterial activity against Staphylococcus epidermidis 56500 was determined; assay type: functional
# [7] = system: Klebsiella pneumoniae; experiment: Antibacterial activity against Klebsiella pneumoniae type II was determined; assay type: functional
# [8] = system: Streptococcus mitis; experiment: Antibacterial activity against Streptococcus mitis IID685 was determined; assay type: functional
# [9] = system: Staphylococcus aureus; experiment: Antibacterial activity against Staphylococcus aureus FDA 209P was determined; assay type: functional
# [10] = system: Staphylococcus aureus; experiment: Antibacterial activity against methicillin-resistant Staphylococcus aureus (MRSA) 870307 was determined; assay type: functional
# [11] = system: Escherichia coli; experiment: Antibacterial activity against Escherichia coli NIHJ was determined; assay type: functional
# [12] = Ratio of binding to human DNA topoisomerase II and Staphylococcus aureus DNA topoisomerase IV
# [13] = Staphylococcus aureus, read-out: MIC
# [14] = Escherichia coli, read-out: MIC
# [15] = Enterococcus faecalis, ATCC 19433, read-out: MIC
# [16] = Streptococcus pyogenes, read-out: MIC
# [17] = Streptococcus pneumoniae, read-out: MIC
# [18] = Staphylococcus epidermidis, read-out: MIC
# [19] = Klebsiella pneumoniae, read-out: MIC
# [20] = Streptococcus mitis, read-out: MIC
SMILES,IC50 [1] [mg/L],IC50 [2] [µM],MIC [3] [mg/L],MIC [4],MIC [5],MIC [6],MIC [7] [mg/L],MIC [8],"MIC [9, 13] [mg/L]",MIC [10] [mg/L],"MIC [11, 14] [mg/L]","MIC [3, 15] [mg/L]","MIC [4, 16] [mg/L]","MIC [5, 17] [mg/L]","MIC [6, 18] [mg/L]","MIC [7, 19] [mg/L]","MIC [8, 20] [mg/L]","MIC [10, 13] [mg/L]",Selectivity [12],other results
Nc1c(F)c(N2C[C@H]3CC[C@H]4C[C@@]4(N)[C@H]3C2)c(F)c2c1c(=O)c(C(=O)O)cn2[C@@H]1C[C@@H]1F (stereo in doubt; 13 (+)) [listing 1 of 2 here],21.89,0.669,0.02,<=0.003 ug ml-1,<=0.003 ug ml-1,<=0.003 ug ml-1,0.01,<=0.003 ug ml-1,≤ 0.003,0.006,≤ 0.003,–,–,–,–,–,–,–,–,–
Nc1c(F)c(N2C[C@H]3CCC[C@@H](N)[C@H]3C2)c(F)c2c1c(=O)c(C(=O)O)cn2[C@@H]1C[C@@H]1F (stereo in doubt; 29 (-)),–,–,0.78,0.1 mg/L,0.1 mg/L,0.2 mg/L,0.39,0.1 mg/L,–,0.78,–,–,–,–,–,–,–,–,–,MIC [9]: 0.02 mg/L; MIC [11]: 0.1 mg/L
C[C@H]1COc2c(N3CCN(C)CC3)c(F)cc3c(=O)c(C(=O)O)cn1c23.C[C@H]1COc2c(N3CCN(C)CC3)c(F)cc3c(=O)c(C(=O)O)cn1c23.O [LEVOFLOXACIN],–,–,–,–,–,–,–,–,0.2,–,–,0.78,0.78,0.78,0.39,0.05,0.39,> 6.25,–,–
CC(=O)NC[C@H]1CN(c2ccc(N3CCOCC3)c(F)c2)C(=O)O1 [LINEZOLID],–,–,–,–,–,–,–,–,0.78,–,6.25,3.13,3.13,0.78,1.56,> 6.25,1.56,1.56,–,–
Nc1c(F)c(N2C[C@H]3C[C@@H]4C[C@@H]4[C@H](N)[C@H]3C2)c(F)c2c1c(=O)c(C(=O)O)cn2[C@@H]1C[C@@H]1F (stereo in doubt; 26 (+)) [listing 1 of 2 here],–,–,–,–,–,–,–,–,–,–,–,–,–,–,–,–,–,–,17.3,–
Nc1c(F)c(N2C[C@H]3CCC[C@@H](N)[C@H]3C2)c(F)c2c1c(=O)c(C(=O)O)cn2[C@@H]1C[C@@H]1F (stereo in doubt; 28 (+)) [listing 1 of 2 here],–,–,–,–,–,–,–,–,–,–,–,–,–,–,–,–,–,–,38.3,–
Nc1c(F)c(N2C[C@H]3C[C@@H]4C[C@@H]4[C@H](N)[C@H]3C2)c(F)c2c1c(=O)c(C(=O)O)cn2[C@@H]1C[C@@H]1F (stereo in doubt; 26 (+)) [listing 2 of 2 here],6.65,0.847,–,–,–,–,–,–,≤ 0.003,0.02,≤ 0.003,0.02,0.006,≤ 0.003,≤ 0.003,0.01,≤ 0.003,–,–,–
Nc1c(F)c(N2C[C@H]3CC[C@H]4C[C@@]4(N)[C@H]3C2)c(F)c2c1c(=O)c(C(=O)O)cn2[C@@H]1C[C@@H]1F (stereo in doubt; 13 (+)) [listing 2 of 2 here],–,–,–,–,–,–,–,–,–,–,–,–,–,–,–,–,–,–,71.3,–
Nc1c(F)c(N2C[C@H]3C[C@@H]4C[C@@H]4[C@@H](N)[C@H]3C2)c(F)c2c1c(=O)c(C(=O)O)cn2[C@@H]1C[C@@H]1F (stereo in doubt; 24 (+)) [listing 1 of 2 here],–,–,–,–,–,–,–,–,–,–,–,–,–,–,–,–,–,–,151,–
CN[C@H](CC(C)C)C(=O)N[C@H]1C(=O)N[C@@H](CC(N)=O)C(=O)N[C@H]2C(=O)N[C@H]3C(=O)N[C@H](C(=O)N[C@H](C(=O)O)c4cc(O)cc(O)c4-c4cc3ccc4O)[C@H](O)c3ccc(c(Cl)c3)Oc3cc2cc(c3O[C@@H]2O[C@H](CO)[C@@H](O)[C@H](O)[C@H]2O[C@H]2C[C@](C)(N)[C@H](O)[C@H](C)O2)Oc2ccc(cc2Cl)[C@H]1O [VANCOMYCIN],–,–,–,–,–,–,–,–,0.2,–,> 6.25,0.39,0.39,0.2,–,> 6.25,0.39,0.39,–,–
Nc1c(F)c(N2C[C@H]3CCC[C@@H](N)[C@H]3C2)c(F)c2c1c(=O)c(C(=O)O)cn2[C@@H]1C[C@@H]1F (stereo in doubt; 28 (+)) [listing 2 of 2 here],7,0.412,0.02,<=0.003 ug ml-1,<=0.003 ug ml-1,<=0.003 ug ml-1,0.01,<=0.003 ug ml-1,–,0.006,–,–,–,–,–,–,–,–,–,MIC [9]: <=0.003 ug ml-1; MIC [11]: <=0.003 ug ml-1
Nc1c(F)c(N2C[C@H]3C[C@@H]4C[C@@H]4[C@@H](N)[C@H]3C2)c(F)c2c1c(=O)c(C(=O)O)cn2[C@@H]1C[C@@H]1F (stereo in doubt; 24 (+)) [listing 2 of 2 here],22.47,0.312,0.02,<=0.003 ug ml-1,<=0.003 ug ml-1,<=0.003 ug ml-1,0.01,<=0.003 ug ml-1,≤ 0.003,0.01,–,–,–,–,–,–,–,–,–,MIC [11]: <=0.003 ug ml-1
Nc1c(F)c(N2C[C@H]3C[C@@H]4C[C@@H]4[C@@H](N)[C@H]3C2)c(F)c2c1c(=O)c(C(=O)O)cn2[C@@H]1C[C@@H]1F (stereo in doubt; 25 (-)),–,–,0.2,0.39 mg/L,0.1 mg/L,0.05 mg/L,0.1,0.1 mg/L,–,1.56,–,–,–,–,–,–,–,–,–,MIC [9]: 0.006 mg/L; MIC [11]: 0.01 mg/L
COc1c(N2C[C@@H]3CCCN[C@@H]3C2)c(F)cc2c(=O)c(C(=O)O)cn(C3CC3)c12 [MOXIFLOXACIN],–,–,–,–,–,–,–,–,0.02,–,0.006,0.2,0.2,0.02,0.1,0.05,0.1,0.78,–,–
Nc1c(F)c(N2C[C@H]3C[C@@H]4C[C@@H]4[C@H](N)[C@H]3C2)c(F)c2c1c(=O)c(C(=O)O)cn2[C@@H]1C[C@@H]1F (stereo in doubt; 27 (-)),–,–,–,0.01 mg/L,0.006 mg/L,0.006 mg/L,–,0.006 mg/L,–,0.2,–,–,–,–,–,–,–,–,–,–
Nc1c(F)c(N2C[C@H]3CC[C@H]4C[C@@]4(N)[C@H]3C2)c(F)c2c1c(=O)c(C(=O)O)cn2[C@@H]1C[C@@H]1F (stereo in doubt; 14 (-)),–,–,0.2,0.05 mg/L,0.02 mg/L,0.02 mg/L,0.05,0.02 mg/L,–,0.2,–,–,–,–,–,–,–,–,–,MIC [11]: 0.006 mg/L
Cc1c(N2C[C@H]3CC[C@H]4C[C@@]4(N)[C@H]3C2)c(F)c(N)c2c(=O)c(C(=O)O)cn([C@@H]3C[C@@H]3F)c12,34.21,0.81,–,–,–,–,–,–,≤ 0.003,–,≤ 0.003,0.02,≤ 0.003,0.006,≤ 0.003,0.01,≤ 0.003,0.01,93.2,–
Cc1c(N2C[C@H]3CCC[C@@H](N)[C@H]3C2)c(F)c(N)c2c(=O)c(C(=O)O)cn([C@@H]3C[C@@H]3F)c12,4.66,0.717,–,–,–,–,–,–,0.006,–,0.006,0.02,≤ 0.003,≤ 0.003,≤ 0.003,0.02,≤ 0.003,0.01,14.7,–
